The test system of this assay is S. aureus. Put plainly: Minimum inhibitory concentrations (MICs) for S. aureus of exemplary compounds (Table 2). Format: cell-based. As to conditions: Staphylococcus aureus, read-out: MICs. The essentials: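 MICs (μg/mL) against S. aureus come from microtiter-tray dilution susceptibility testing per NCCLS M7-A5, comparing growth with and without compound.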
Where [1] appears, read: minimum inhibitory concentrations for S. aureus.

Each structure is given as a SMILES string. ≈ marks a conversion by molar mass, not a printed value. Read-outs that look alike come from different tables or passages of the source.

As for `CC(=O)NC[C@H]1CN(c2ccc(-c3ccc(CNS(=O)(=O)CCN4C(=O)c5ccccc5C4=O)cc3)c(F)c2)C(=O)O1` [Compound 4136, N-[3-(4′-{[2-(1,3-Dioxo-1,3-dihydro-isoindol-2-yl)-ethanesulfonylamino]-methyl}-2-fluoro-biphenyl-4-yl)-2-oxo-oxazolidin-5-(S)-ylmethyl]-acetamide], under setting [1], the MIC stood at 8 µg/mL (≈ 13.5 µM).

As for `CC(=O)NC[C@H]1CN(c2ccc(-c3ccc(CNOCc4ccccc4)cc3)c(F)c2)C(=O)O1` [Compound 4263, N-{3-[4′-(Benzyloxyamino-methyl)-2-fluoro-biphenyl-4-yl]-2-oxo-oxazolidin-5-(S)-ylmethyl}-acetamide], the MIC under setting [1] was 2 µg/mL (≈ 4.31 µM).

As to `O=C(NC[C@H]1CN(c2ccc(-c3ccc(Cn4cnnn4)cc3)c(F)c2)C(=O)O1)C(Cl)Cl` [Compound 1034, 2,2-Dichloro-N-[3-(2-fluoro-4′-tetrazol-1-ylmethyl-biphenyl-4-yl)-2-oxo-oxazolidin-5-(S)-ylmethyl]-acetamide], the MIC under setting [1] was found to be 0.5 µg/mL (≈ 1.04 µM).

As for `CC(=O)NC[C@H]1CN(c2cc(F)c(-c3ccc(Cn4cc(CN(C)C)nn4)cc3)c(F)c2)C(=O)O1` [Compound 1019, N-{3-[4′-(4-Dimethylaminomethyl-[1,2,3]triazol-1-ylmethyl)-2,6-difluoro-biphenyl-4-yl]-2-oxo-oxazolidin-5-(S)-ylmethyl}-acetamide], the MIC was 2 µg/mL (≈ 4.13 µM).

Turning to `CC(=O)NC[C@H]1CN(c2ccc(-c3ccc(CNC(=O)[C@@H]4CCCN4)cc3)c(F)c2)C(=O)O1` [Compound 4309, Pyrrolidine-2-(S)-carboxylic acid {4′-[5-(S)-(acetylamino-methyl)-2-oxo-oxazolidin-3-yl]-2′-fluoro-biphenyl-4-ylmethyl}-amide], the MIC under setting [1] worked out at 8 µg/mL (≈ 17.6 µM).

In the case of `CC(=O)NC[C@H]1CN(c2ccc(-c3ccc(C(NC(=O)OCc4ccccc4)c4nnn(C)n4)cc3)c(F)c2)C(=O)O1` (mixture of isomers) [Compound 1041, [{4′-[5-(S)-(Acetylamino-methyl)-2-oxo-oxazolidin-3-yl]-2′-fluoro-biphenyl-4-yl}-(2-methyl-2H-tetrazol-5-(R/S)-yl)-methyl]-carbamic acid benzyl ester], the MIC under setting [1] amounted to 1 µg/mL (≈ 1.74 µM).

For `CC(=O)NC[C@H]1CN(c2ccc(-c3ccc(CNCC4OCCO4)cc3)c(F)c2)C(=O)O1` [Compound 4209, N-[3-(4′-{[([1,3]Dioxolan-2-ylmethyl)-amino]-methyl}-2-fluoro-biphenyl-4-yl)-2-oxo-oxazolidin-5-(S)-ylmethyl]-acetamide], the MIC under setting [1] was found to be 0.5 µg/mL (≈ 1.13 µM).

For `CC(=O)NC[C@H]1CN(c2ccc(-c3ccc(CSc4ncnn4C)cc3)c(F)c2)C(=O)O1` [Compound 2033, N-{3-[2-Fluoro-4′-(2-methyl-2H-[1,2,4]triazol-3-ylsulfanylmethyl)-biphenyl-4-yl]-2-oxo-oxazolidin-5-(S)-ylmethyl}-acetamide], the MIC under setting [1] amounted to 1 µg/mL (≈ 2.2 µM).

On to `CC(=O)NC[C@H]1CN(c2ccc(-c3ccc(C(=O)NCCc4cnc[nH]4)nc3)c(F)c2)C(=O)O1` [Compound 4223, 5-{4-[5-(S)-(Acetylamino-methyl)-2-oxo-oxazolidin-3-yl]-2-fluoro-phenyl}-pyridine-2-carboxylic acid [2-(3H-imidazol-4-yl)-ethyl]-amide], for which, under setting [1], the MIC was found to be 2 µg/mL (≈ 4.29 µM).

Regarding `CC(=O)NC[C@H]1CN(c2ccc(-c3ccc(CNCc4ccc5cccnc5c4)cc3)c(F)c2)C(=O)O1` [Compound 4138, N-[3-(2-Fluoro-4′-{[(quinolin-7-ylmethyl)-amino]-methyl}-biphenyl-4-yl)-2-oxo-oxazolidin-5-(S)-ylmethyl]-acetamide], the MIC under setting [1] worked out at 1 µg/mL (≈ 2.01 µM).

For the compound `CCN(Cc1ccncc1)Cc1ccc(-c2ccc(N3C[C@H](CNC(C)=O)OC3=O)cc2F)cc1` [Compound 4035, N-(3-{4′-[(Ethyl-pyridin-4-ylmethyl-amino)-methyl]-2-fluoro-biphenyl-4-yl}-2-oxo-oxazolidin-5-(S)-ylmethyl)-acetamide], under setting [1], the MIC amounted to 2 µg/mL (≈ 4.2 µM).

`CC(=O)NC[C@H]1CN(c2ccc(-c3ccc(COCc4ccncc4)cc3)c(F)c2)C(=O)O1` [Compound 4196, N-{3-[2-Fluoro-4′-(pyridin-4-ylmethoxymethyl)-biphenyl-4-yl]-2-oxo-oxazolidin-5-(S)-ylmethyl}-acetamide]: the MIC under setting [1] was 1 µg/mL (≈ 2.22 µM).

As to `CC(=O)NC[C@H]1CN(c2ccc(-c3ccc(CNCc4ccc(-c5cccc(S(N)(=O)=O)c5)o4)cc3)c(F)c2)C(=O)O1` [Compound 4158, N-{3-[2-Fluoro-4′-({[5-(3-sulfamoyl-phenyl)-furan-2-ylmethyl]-amino}-methyl)-biphenyl-4-yl]-2-oxo-oxazolidin-5-(S)-ylmethyl}-acetamide], the MIC under setting [1] worked out at 2 µg/mL (≈ 3.37 µM).

Consider `CC(=O)NC[C@H]1CN(c2ccc(-c3ccc(CNCC(=O)N4CCN(C(=O)OC(C)(C)C)CC4)cc3)c(F)c2)C(=O)O1` [Compound 4315, 4-[2-({4′-[5-(S)-(Acetylamino-methyl)-2-oxo-oxazolidin-3-yl]-2′-fluoro-biphenyl-4-ylmethyl}-amino)-acetyl]-piperazine-1-carboxylic acid tert-butyl ester], for which, under setting [1], the MIC is 4 µg/mL (≈ 6.85 µM).

Turning to `CC(=O)NC[C@H]1CN(c2ccc(-c3ccc(/C=N/Nc4ccccn4)cc3)c(F)c2)C(=O)O1` [Compound 2041, N-{3-[2-Fluoro-4′-(pyridin-2-yl-hydrazonomethyl)-biphenyl-4-yl]-2-oxo-oxazolidin-5-(S)-ylmethyl}-acetamide], the MIC under setting [1] is 1 µg/mL (≈ 2.23 µM).

Turning to `CC(=O)NC[C@H]1CN(c2ccc(-c3ccc(S(=O)(=O)NCc4ccncc4)cc3)c(F)c2)C(=O)O1` [Compound 3005, N-(3-{2-Fluoro-4′-[(pyridin-4-ylmethyl)-sulfamoyl]-biphenyl-4-yl}-2-oxo-oxazolidin-5-(S)-ylmethyl)-acetamide], the MIC under setting [1] turned out to be 2 µg/mL (≈ 4.01 µM).

In the case of `CC(=O)NC[C@H]1CN(c2ccc(-c3ccc(CNCc4cccnc4)cc3)c(F)c2)C(=O)O1` [Compound 4025, N-[3-(2-Fluoro-4′-{[(pyridin-3-ylmethyl)-amino]-methyl}-biphenyl-4-yl)-2-oxo-oxazolidin-5-(S)-ylmethyl]-acetamide], the MIC under setting [1] came to 1 µg/mL (≈ 2.23 µM).

`CC(=O)NC[C@H]1CN(c2ccc(-c3ccc(CSc4ccccn4)cc3)c(F)c2)C(=O)O1` [Compound 2018, N-{3-[2-Fluoro-4′-(pyridin-2-ylsulfanylmethyl)-biphenyl-4-yl]-2-oxo-oxazolidin-5-(S)-ylmethyl}-acetamide]: the MIC under setting [1] was found to be 0.25 µg/mL (≈ 0.554 µM).

In the case of `COC(=O)c1cc(CNCc2ccc(-c3ccc(N4C[C@H](CNC(C)=O)OC4=O)cc3F)cc2)oc1C` [Compound 4120, 5-[({4′-[5-(S)-(Acetylamino-methyl)-2-oxo-oxazolidin-3-yl]-2′-fluoro-biphenyl-4-ylmethyl}-amino)-methyl]-2-methyl-furan-3-carboxylic acid methyl ester], under setting [1], the MIC came to 1 µg/mL (≈ 1.96 µM).

Take `CC(=O)NC[C@H]1CN(c2ccc(-c3ccc(CNCc4c[nH]c5ccccc45)cc3)c(F)c2)C(=O)O1` [Compound 4083, N-[3-(2-Fluoro-4′-{[(1H-indol-3-ylmethyl)-amino]-methyl}-biphenyl-4-yl)-2-oxo-oxazolidin-5-(S)-ylmethyl]-acetamide]: the MIC under setting [1] was 2 µg/mL (≈ 4.11 µM).

As to `CC(=O)NC[C@H]1CN(c2ccc(-c3ccc(CN(Cc4nnnn4C)C(=O)OC(C)(C)C)cc3)c(F)c2)C(=O)O1` [Compound 4280, {4′-[5-(S)-(Acetylamino-methyl)-2-oxo-oxazolidin-3-yl]-2′-fluorobiphenyl-4-ylmethyl}-(1-methyl-1H-tetrazol-5-ylmethyl)-carbamic acid tert-butyl ester], the MIC under setting [1] was 1 µg/mL (≈ 1.81 µM).

`CC(=O)NC[C@H]1CN(c2ccc(-c3ccc(CNCc4cc[n+]([O-])cc4)cc3)c(F)c2)C(=O)O1` [Compound 4245, N-[3-(2-Fluoro-4′-{[(1-oxy-pyridin-4-ylmethyl)-amino]-methyl}-biphenyl-4-yl)-2-oxo-oxazolidin-5-(S)-ylmethyl]-acetamide]: the MIC under setting [1] is 2 µg/mL (≈ 4.31 µM).

In the case of `CC(=O)NC[C@H]1CN(c2ccc(-c3ccc(CNCc4cc5ccccc5n4C)cc3)c(F)c2)C(=O)O1` [Compound 4049, N-[3-(2-Fluoro-4′-{[(1-methyl-1H-indol-2-ylmethyl)-amino]-methyl}-biphenyl-4-yl)-2-oxo-oxazolidin-5-(S)-ylmethyl]-acetamide], the MIC under setting [1] was found to be 1 µg/mL (≈ 2 µM).

On to `CC(=O)NC[C@H]1CN(c2ccc(-c3ccc([C@H](CO)N4CCCC(F)(F)C4)cc3)c(F)c2)C(=O)O1` [Compound 1074, N-(3-{4′-[1-(R)-(3,3-Difluoro-piperidin-1-yl)-2-hydroxy-ethyl]-2-fluoro-biphenyl-4-yl}-2-oxo-oxazolidin-5-(S)-ylmethyl)-acetamide], for which the MIC under setting [1] was 4 µg/mL (≈ 8.14 µM).

On to `CC(=O)NC[C@H]1CN(c2ccc(-c3ccc(CSCC4CO4)cc3)c(F)c2)C(=O)O1` (stereo partly drawn) [Compound 4226, N-[3-(2-Fluoro-4′-oxiranylmethylsulfanylmethyl-biphenyl-4-yl)-2-oxo-oxazolidin-5-(S)-ylmethyl]-acetamide], for which the MIC under setting [1] is 1 µg/mL (≈ 2.32 µM).

For the compound `CC(=O)NC[C@H]1CN(c2ccc(-c3ccc(CNCc4ccc(-n5cccc5)cc4)cc3)c(F)c2)C(=O)O1` [Compound 4147, N-(3-{2-Fluoro-4′-[(4-pyrrol-1-yl-benzylamino)-methyl]-biphenyl-4-yl}-2-oxo-oxazolidin-5-(S)-ylmethyl)-acetamide], the MIC under setting [1] was determined as 4 µg/mL (≈ 7.8 µM).

With `CC(=O)NC[C@H]1CN(c2ccc(-c3ccc(CNCCCn4ccnc4)cc3)c(F)c2)C(=O)O1` [Compound 4079, N-(3-{2-Fluoro-4′-[(3-imidazol-1-yl-propylamino)-methyl]-biphenyl-4-yl}-2-oxo-oxazolidin-5-(S)-ylmethyl)-acetamide], the MIC under setting [1] came to 32 µg/mL (≈ 68.7 µM).

Take `CC(=O)NC[C@H]1CN(c2ccc(-c3ccc([C@H](CO)NCc4ccncc4)cc3)c(F)c2)C(=O)O1` [Compound 4029, N-[3-(2-Fluoro-4′-{2-hydroxy-1-(R)-[(pyridin-4-ylmethyl)-amino]-ethyl}-biphenyl-4-yl)-2-oxo-oxazolidin-5-(S)-ylmethyl]-acetamide]: the MIC under setting [1] came to 4 µg/mL (≈ 8.36 µM).

Turning to `CC(=O)NC[C@H]1CN(c2ccc(-c3ccc(CNCc4sccc4C)cc3)c(F)c2)C(=O)O1` [Compound 4099, N-[3-(2-Fluoro-4′-{[(3-methyl-thiophen-2-ylmethyl)-amino]-methyl}-biphenyl-4-yl)-2-oxo-oxazolidin-5-(S)-ylmethyl]-acetamide], the MIC under setting [1] was 4 µg/mL (≈ 8.55 µM).
